This note sets out measurements from article PMC3731320, “Identification of Benzimidazole Diamides as Selective Inhibitors of the Nucleotide-Binding Oligomerization Domain 2 (NOD2) Signaling Pathway” (PLoS ONE, 2013).

The target of assay [1] is T1, full length human FLAG-6His tagged RIP2 (Homo sapiens, UniProt O43353).
T1 construct: autophosphorylation of full length human FLAG-6His tagged RIP2; FLAG; 6His; made in house
Nature of the assay: RIP2 kinase autophosphorylation assay (ADP-Glo). Type of assay: biochemical. Conditions: autophosphorylation of RIPK2; 10 μM ATP. Here is the method: Direct effects of compounds on RIP2 kinase activity was determined by autophosphorylation of full length human FLAG-6His tagged RIP2 expressed and purified from baculovirus. Enzyme was pre-incubated with compounds in assay buffer (50 mM HEPES pH 7.5, 25 mM MgCl2, 0.05%[w/v] CHAPS, 1 mM DTT and 0.05 mg/mL BSA) in 384-well plates, and then incubated with 10μM ATP for 2 hours at room temperature. The amount of ADP generated was measured using the ADP-Glo universal ADP detection assay for kinases (Promega) and luminescence quantified on a ViewLux imager.
Background: In ADP-Glo the light output rises with the ADP produced.

Another assay deals with NOD1. The assay is described as follows: IL-8 secretion induced by NOD1 over-expression (BacMam) in HEK293T cells with or without iE-DAP. Type of assay: cell-based, human. Here is the method:
Over-expression of NOD1 and NOD2 was achieved by transduction of HEK293T cells with either NOD1 or NOD2 BacMam recombinant baculoviruses. […] The effect of compounds on activator-independent NOD1/2 signaling was determined by 30 minute pre-treatment of cells (in 96-well plates seeded the previous day in DMEM high glucose with 10% FBS at 60,000 cells/well) followed by infection with NOD1 or NOD2 BacMam virus (MOI = 50). IL-8 was measured in conditioned medium after 24 hour incubation at 37 °C. To determine the effect of compounds on NOD1/2 activator-dependent IL-8 secretion in BacMam transduced HEK293T, the cells were infected with virus for 6 hours (MOI = 50), and following the removal of virus the cells were cultured over-night. The next day medium was again replaced and cells pre-treated with compound for 30 minutes followed by stimulation with either MDP (30 ng/mL) or iE-DAP (300 ng/mL). IL-8 was measured in conditioned medium by HTRF after 24-hour incubation at 37 °C.

The test system of assay [2] is NOD2. The assay is described as follows: MDP-stimulated IL-8 release in 293/hNOD2 cells (HTRF). It counts as cell-based, human. Conditions: for IC50: Homo sapiens. Here is the method:
After 24 hours the amount of IL-8 secreted into the medium was determined by homogeneous time resolved fluorescence (HTRF) assay by the direct addition of a 1:1 mix of europium cryptate and XL665-conjugated anti-IL-8 antibodies according to the manufacturer's instructions (Cisbio).

The subject of assay [3] is NOD2. Nature of the assay: ssRNA-induced IFNβ gene expression in 293/hNOD2 cells (real-time RT-PCR). It counts as cell-based, human. Conditions: GSK669 0.16–16 μM, RIP2 inhibitor 0.1 μM, mRNA after 6 hours. Here is the method:
Cells seeded in 96-well plates at sub-confluent density (60,000/well) in DMEM + 1% FBS were transfected for 6 hours with ssRNA40 (1.25–6.67 μg/mL) using lipofectamine 2000 (Invitrogen) and RNA/liposome complexes prepared in Opti-MEM1 medium (Invitrogen). Induction of IFNβ gene expression was measured by real-time reverse transcription PCR (Taqman). RNA was isolated from cell extracts in Trizol (Invitrogen) using the RNeasy kit (Qiagen), and mRNA quantified following reverse transcription and PCR amplification using Taqman reverse transcription and Taqman PCR core reagent kits, pre-formulated primer/probe mixes and ABI 7900 sequence detection system (Applied Biosystems). Expression of IFNβ (ABI primer/probe mix Hs01077958_s1) was normalized to 18S ribosomal RNA.

Entries after “also recorded” stand apart in the source; their conditions may differ. Where two headings read alike, the source gives them in different places.

T1 sequence (O43353 whole entry): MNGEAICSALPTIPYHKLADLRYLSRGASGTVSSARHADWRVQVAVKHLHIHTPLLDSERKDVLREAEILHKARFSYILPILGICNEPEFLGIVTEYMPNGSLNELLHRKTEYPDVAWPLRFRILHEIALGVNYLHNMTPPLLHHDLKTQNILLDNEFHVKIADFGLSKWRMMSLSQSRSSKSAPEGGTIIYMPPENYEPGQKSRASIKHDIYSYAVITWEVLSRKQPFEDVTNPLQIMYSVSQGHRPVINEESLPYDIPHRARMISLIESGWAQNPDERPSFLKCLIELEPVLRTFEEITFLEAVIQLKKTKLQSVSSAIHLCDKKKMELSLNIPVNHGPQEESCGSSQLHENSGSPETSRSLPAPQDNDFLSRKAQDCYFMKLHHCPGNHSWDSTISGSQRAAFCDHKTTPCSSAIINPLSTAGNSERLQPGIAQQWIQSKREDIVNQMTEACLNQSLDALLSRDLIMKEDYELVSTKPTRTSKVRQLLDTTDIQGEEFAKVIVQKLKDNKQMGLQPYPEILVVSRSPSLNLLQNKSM

For the compound `O=C(Cn1c(CCNC(=O)c2ccccc2)nc2ccccc21)Nc1ccc2c(c1)CCC2` [Compound 1, N-(2-(1-(2-((2,3-dihydro-1H-inden-5-yl)amino)-2-oxoethyl)-1H-benzo[d]imidazol-2-yl)ethyl)benzamide], the IC50 is greater than 100 µM in assay [1]; 3.2 µM with NOD2 [2] (read-out: IC50 293/hNOD2 MDP); 3.3 ± 1.6 µM in the assay with NOD2 [2] (MDP-stimulated IL-8 production assay in 293/hNOD2 cells, Figures 4 and 5, read-out: NOD2 IC50). In addition, the “effect on IL-8 secretion induced by NOD1 virus alone, single concentration” value in the assay with NOD1 (MOI 50, 24 hours, GSK669 5 μM, IKK inhibitor 0.5 μM) is reported as “failed to block IL-8 secretion”. The “effect on IL-8 secretion induced by over-expression of NOD1” value in the assay on NOD1 (in the presence or absence of iE-DAP) is on record as “had no effect”. Further, in the assay with NOD2 [2] (all selectivity assays vs NOD2 IC50), the “fold less active in the selectivity assays than on the NOD2 pathway” value was “at least 10 fold”. The “effect on ssRNA-induced IFNβ expression” value with NOD2 [3] is “unaffected; also recorded: did not block”.
